Experimental findings from PubChem BioAssay AID624285 (Broad Institute, 2012) are described below.

Structures are written as SMILES. Several values for one entry are separate records, joined by “and”; a condition that tells them apart may be missing. Identical values can stand only once. Activity calls are given as the source filed them.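 How the source made its calls: active means signal-decreasing dose-response curve whose fitted half-maximal concentration is at or below twice the highest valid tested dose; inconclusive means flat fit at 30 to 70% signal loss, or poor fit; inactive means the rest.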

This experiment can be described thus: cytotoxicity in mammalian cells, dose response, cytotoxicity control for PDI inhibitor project, cell-based, 24 h, luminescence, cherry-picked samples (AID 624285). The note with it: NIH3T3/HeLa viability, CellTiter-Glo ATP luminescence, 24 h; at 35 µM (top of the series). (In general: ATP-based viability assays read luminescence as a measure of living cells.)
As to `COc1ccc(Cl)cc1NC(=O)COC(=O)C1CC1`, the activity change, negative = cytotoxicity was -9.32% (inactive).

For the molecule `O=C(CN1CCN(c2ccc(O)cc2)CC1)Nc1cc(S(=O)(=O)N2CCOCC2)ccc1Cl`, the activity change, negative = cytotoxicity was -13.3% (inactive).

Turning to `C[C@H](CO)N1C[C@H](C)[C@@H](CN(C)Cc2ccc(Oc3ccccc3)cc2)Oc2c(NS(C)(=O)=O)cccc2C1=O`, the activity change, negative = cytotoxicity is 0.644% (inactive).

Take `O=C(c1ccc(NS(=O)(=O)c2ccccc2)cc1)N1CCOCC1`: the activity change, negative = cytotoxicity was -8.07% (inactive).

`O=C(c1c(O)cc(O)cc1O)C1c2c(cc(O)c3c2O[C@H](c2ccc(O)cc2)[C@@H](O)C3)OC1c1ccc(O)cc1` (some centres undefined): the activity change, negative = cytotoxicity was -5.6% (inactive).

With `O=C1CC(C(=O)N2CCc3ccccc32)CN1c1ccc(F)cc1` (centres undefined), the activity change, negative = cytotoxicity was -10.7% (inactive).

Regarding `COc1ccc(N2CCN(CC(=O)c3ccc(O)c(C)c3O)CC2)cc1`, the activity change, negative = cytotoxicity was -3.44% (inactive).

Turning to `O=C(O)CCc1ccc(-c2cccs2)n1NC(=O)c1ccco1`, the activity change, negative = cytotoxicity is 0.695% (inactive).

As for `CC(=O)c1ccc(OCc2cc(C(=O)N3CCCCC3c3cccnc3)no2)cc1` (centres undefined), the activity change, negative = cytotoxicity was -6.2% (inactive).

As for `O=c1cc(CSc2nnnn2-c2ccc(O)cc2)nc2sccn12`, the activity change, negative = cytotoxicity is -22.1% (inactive).

Take `O=C(NC(=S)Nc1cccc(NC(=O)c2ccccc2)c1)c1cccc([N+](=O)[O-])c1`: the activity change, negative = cytotoxicity was -10.7% (inactive).

With `O=C1C[C@H](c2ccc(O)cc2)Oc2cc(O[C@@H]3O[C@H](CO)[C@@H](O)[C@H](O)[C@H]3O)cc(O[C@@H]3O[C@H](CO)[C@@H](O)[C@H](O)[C@H]3O)c21`, the activity change, negative = cytotoxicity is -8.86% (inactive).

As for `COc1ccccc1NS(=O)(=O)c1cccc(C(=O)NCC2(N3CCCCC3)CCCCC2)c1`, the activity change, negative = cytotoxicity was -10.5% (inactive).

`CCOC(=O)c1cc(S(=O)(=O)N2CCN(C(=O)OCC)CC2)cn1C`: the activity change, negative = cytotoxicity is -3.84% (inactive).

Regarding `O=C(NCc1ccccc1)c1cc(C2CCCN(C(=O)C3CCCCC3)C2)on1` (centres undefined), the activity change, negative = cytotoxicity was -16.2% (inactive).

With `CC(=O)NC(Cc1c[nH]c2ccccc12)C(=O)OCC(=O)N1CCN(S(=O)(=O)c2ccc(Cl)cc2)CC1` (centres undefined), the activity change, negative = cytotoxicity was -10.5% (inactive).

`O=C(N/N=C/c1ccc(O)cc1)NC12CC3CC(CC(C3)C1)C2`: the activity change, negative = cytotoxicity was -14.1% (inactive).

Turning to `Cc1noc(C)c1S(=O)(=O)Nc1ccc2c(c1)CC(=O)N([C@@H](C)CO)C[C@H](C)[C@@H](CN(C)S(=O)(=O)c1ccc(F)cc1)O2`, the activity change, negative = cytotoxicity is 2.55% (inactive).

As for `O=c1c(O[C@H]2O[C@@H](CO)[C@H](O)[C@@H](O)[C@@H]2O)c(-c2ccc(O)cc2)oc2cc(O)cc(O)c12`, the activity change, negative = cytotoxicity was -3.13% (inactive).

In the case of `CC(=O)OCC(=O)NCc1ccc2c(c1)OCO2`, the activity change, negative = cytotoxicity is -5.14% (inactive).

Regarding `Cc1c(O)ccc2c(CC(=O)N[C@@H](Cc3c[nH]c4ccccc34)C(=O)O)cc(=O)oc12`, the activity change, negative = cytotoxicity is -8.56% (inactive).

As for `Cc1ccc(NC(=O)NC(=O)CN2CCC(C(N)=O)CC2)c(C)c1`, the activity change, negative = cytotoxicity is -4.84% (inactive).

Consider `CCCCNC(=O)CCn1c(=O)c2ccccc2n(CC(=O)Nc2ccccc2OCC)c1=O`, for which the activity change, negative = cytotoxicity is -9.28% (inactive).

Turning to `O=C1CCC(=O)N1c1nc2nc(-c3ccccc3)cc(-c3ccccc3)n2n1`, the activity change, negative = cytotoxicity was -9.12% (inactive).

Regarding `COc1cccc(NS(=O)(=O)c2ccc3c(c2)C2C=CCC2C(c2ccc(C(=O)O)cc2)N3)c1` (centres undefined), the activity change, negative = cytotoxicity is -7.82% (inactive).

Regarding `C[C@@H]1CN([C@@H](C)CO)C(=O)c2cccc(NS(C)(=O)=O)c2O[C@H]1CN(C)Cc1ccc(Oc2ccccc2)cc1`, the activity change, negative = cytotoxicity is -11.5% (inactive) and -6.47% (inactive).

As to `CC(C)c1ccc(Nc2nc(CC(=O)O)cs2)cc1`, the activity change, negative = cytotoxicity is -4.01% (inactive).

In the case of `Cc1ccc2nc(N3CCN(Cc4nnnn4C4CCCC4)CC3)c(C#N)cc2c1`, the activity change, negative = cytotoxicity is -9.95% (inactive).

In the case of `CCOC(=O)c1c(CN2CCOCC2)n(-c2ccccc2)c2cc(Br)c(OC)cc12`, the activity change, negative = cytotoxicity is -12.1% (inactive).

`Cc1[nH]c2ccc(C(=O)NC3CCCC3)cc2c1C`: the activity change, negative = cytotoxicity is -3.79% (inactive).

`Cn1nccc1C(=O)Nc1ccc(S(=O)(=O)N2CCCC2)cc1`: the activity change, negative = cytotoxicity is -14.9% (inactive).

Regarding `CN(C)C(=O)CSc1nnc([C@H](Cc2c[nH]c3ccccc23)NC(=O)OC(C)(C)C)o1`, the activity change, negative = cytotoxicity is -2.37% (inactive).

Take `CCC1Nc2ncnc(N3CCCCC3)c2N(Cc2ccc(C)cc2)C1=O` (centres undefined): the activity change, negative = cytotoxicity is -16.7% (inactive).

On to `CCOC(=O)CN(c1ccccc1)S(=O)(=O)c1ccc(F)cc1`, for which the activity change, negative = cytotoxicity was -10.3% (inactive).

Turning to `CCOc1ccccc1CN1CCNC(=O)C1CC(=O)NCc1nccn1CC` (centres undefined), the activity change, negative = cytotoxicity was -14.3% (inactive).

For `CCN(CC)C(=O)CSc1nnc([C@H](Cc2c[nH]c3ccccc23)NC(=O)OC(C)(C)C)o1`, the activity change, negative = cytotoxicity was -8.74% (inactive).

With `CCOC(=O)c1c(CN2CCN(CCO)CC2)n(C)c2cc(Br)c(OC)cc12`, the activity change, negative = cytotoxicity was -17.2% (inactive).

Take `C[C@H](CO)N1C[C@H](C)[C@@H](CN(C)S(=O)(=O)c2ccc(F)cc2)Oc2ccc(NC(=O)Cc3ccccc3)cc2C1=O`: the activity change, negative = cytotoxicity was -14.6% (inactive).

As to `Cc1cc(C)cc(CC(=O)N2CCC2(C)C(=O)NS(=O)(=O)c2ccc(Br)cc2)c1` (centres undefined), the activity change, negative = cytotoxicity was -4.97% (inactive).

Regarding `Cc1noc(C)c1S(=O)(=O)Nc1ccc2c(c1)CC(=O)N([C@H](C)CO)C[C@@H](C)[C@@H](CN(C)S(=O)(=O)c1ccc(F)cc1)O2`, the activity change, negative = cytotoxicity was -0.682% (inactive).

Turning to `COc1ccc(CCNC(=O)c2cc(S(=O)(=O)N(C)C)ccc2N2CCCC2)cc1`, the activity change, negative = cytotoxicity was -14.6% (inactive).

Turning to `O=C1[C@@H]2C(Cc3ccc(O)cc3)NC3(C(=O)Nc4ccc(F)cc43)[C@@H]2C(=O)N1c1ccccc1` (some centres undefined), the activity change, negative = cytotoxicity is -14% (inactive).

Turning to `O=C1CN(c2nc3ccccc3n3cnnc23)CC(=O)N1CCc1ccccc1`, the activity change, negative = cytotoxicity was -8.64% (inactive).

As to `C[C@H](CO)N1C[C@H](C)[C@H](CN(C)Cc2ccccc2)Oc2ccc(NC(=O)Nc3ccccc3)cc2CC1=O`, the activity change, negative = cytotoxicity is -11.2% (inactive).

For `Cc1noc(C)c1S(=O)(=O)Nc1ccc2c(c1)CC(=O)N([C@H](C)CO)C[C@H](C)[C@H](CN(C)S(=O)(=O)c1ccc(F)cc1)O2`, the activity change, negative = cytotoxicity was 0.678% (inactive) and -3.98% (inactive).

Regarding `COc1cccc(/C=N/NC(=O)CNC(=O)c2ccc3c(c2)OCCO3)c1O`, the activity change, negative = cytotoxicity was -12.5% (inactive).

As for `O=C(CSc1n[nH]c(-c2ccccc2)n1)Nc1ccccc1O`, the activity change, negative = cytotoxicity was -6.55% (inactive).

For the molecule `CC(=O)C1=C(O)C(=O)N(CCc2c[nH]c3ccccc23)C1c1cccc(O)c1` (centres undefined), the activity change, negative = cytotoxicity is -10.4% (inactive).

As to `CC(C)Oc1cccc(C(=O)NC(=S)Nc2cccc(NC(=O)c3ccccc3Cl)c2)c1`, the activity change, negative = cytotoxicity is -18.2% (inactive).

For the molecule `CCN1CC2(COC(=O)c3ccccc3N)CCC(OC)C34C5CC6C(OC)CC(O)(C5C6OC)C(O)(C(OC)C23)C14` (centres undefined), the activity change, negative = cytotoxicity was -11.8% (inactive).

As to `CC(Cc1ccc(O)cc1)NCC(O)c1ccc(O)c(O)c1` (centres undefined), the activity change, negative = cytotoxicity was -7.22% (inactive).

`COc1ccc(OC)c(CN2CCN(Cc3cc(=O)oc4cc(O)ccc34)CC2)c1`: the activity change, negative = cytotoxicity was -20.6% (inactive).

For the molecule `COC(=O)c1cccc(CSc2nnc(C)s2)c1`, the activity change, negative = cytotoxicity was -12.9% (inactive).

In the case of `C[C@@H]1CN([C@@H](C)CO)C(=O)c2cc(NC(=O)Cc3cn(C)c4ccccc34)ccc2O[C@H]1CN(C)S(=O)(=O)c1ccc(F)cc1`, the activity change, negative = cytotoxicity is 3.15% (inactive).

With `NC(=O)c1ccc(NC(=O)COC(=O)c2ccc(Br)c(S(=O)(=O)N3CCOCC3)c2)cc1`, the activity change, negative = cytotoxicity is -6.39% (inactive).

Turning to `CCOC(=O)c1c(-c2ccccc2)oc2cc(Br)c(O)cc12`, the activity change, negative = cytotoxicity is -20.5% (inactive).

With `CCOc1ncccc1C(=O)OCC(=O)Nc1ccc(C(C)C)cc1`, the activity change, negative = cytotoxicity is -7.86% (inactive).

As to `CC1(C(=O)N2CCCCC2)CCN1C(=O)Cc1ccc(-c2ccccc2)cc1` (centres undefined), the activity change, negative = cytotoxicity was -5.8% (inactive).

For the molecule `N#Cc1ccccc1CSc1nnc(Cc2ccccc2)o1`, the activity change, negative = cytotoxicity was -7.32% (inactive).

As for `Cc1c(C(=O)N2CCOCC2)sc2ncn(CC(=O)N3CCC(C)CC3)c(=O)c12`, the activity change, negative = cytotoxicity was -2.62% (inactive).

For `COc1ccc(CN(C)C[C@@H]2Oc3c(NS(C)(=O)=O)cccc3C(=O)N([C@H](C)CO)C[C@H]2C)cc1`, the activity change, negative = cytotoxicity was 2.2% (inactive).

In the case of `Cc1c(-n2cc(C(=O)c3ccccc3O)cc(C#N)c2=O)c(=O)n(-c2ccccc2)n1C`, the activity change, negative = cytotoxicity was -5.22% (inactive).

As for `Cc1c(O)ccc2c(CN3CCN(CCO)CC3)cc(=O)oc12`, the activity change, negative = cytotoxicity is -7.06% (inactive).

Take `COCC(=O)N(C)C1(c2nnnn2CCOC(=O)Nc2ccc(Cl)cc2)CCCCC1`: the activity change, negative = cytotoxicity was -4.92% (inactive).

In the case of `C[C@H]1CCCC(=O)CCCCCc2cc(O)cc(O)c2C(=O)O1`, the activity change, negative = cytotoxicity is -12.8% (inactive).

Consider `Cc1cc(=O)c(C(=O)Nc2cccc(C(=O)NC3CC3)c2)nn1-c1ccccc1`, for which the activity change, negative = cytotoxicity was -3.19% (inactive).

Regarding `Cc1ccc2c(=O)n3c(nc2c1)C(Cc1ccc(O)cc1)NC(=O)c1cccnc1-3` (centres undefined), the activity change, negative = cytotoxicity is -12.6% (inactive).

Take `CC(=O)c1ccc(NC(=O)c2cc(Cl)nc3ccccc23)cc1`: the activity change, negative = cytotoxicity was -8.36% (inactive).

On to `COc1ccc(/C(C)=N/NC(=O)CNC(=O)c2cccs2)cc1`, for which the activity change, negative = cytotoxicity is -6.13% (inactive).
